One compound from patent US6479513B2, “Anticancer compound and enantiomer separation method useful for synthesizing said compound” (Pfizer Inc., priority 2000, dated 2002) can be followed below.

This assay deals with T1, human farnesyl transferase (FTase) (Homo sapiens, UniProt P49354+P49356).
T1 construct: comprising the cytosolic fraction of homogenized brain tissue; from tissue; host or cells: brain tissue, cytosolic fraction (crude FTase)
The experiment in a line: in vitro inhibition of human FTase, farnesyl transferase (3H) scintillation proximity assay. It counts as biochemical. The source says: The activity of the compounds of formula 1 and formula 2 as Ras farnesylation inhibitors may be determined by their ability, relative to a control, to inhibit Ras farnesyl transferase in vitro. An example of one such procedure is described below.
A crude preparation of human farnesyl transferase (FTase) comprising the cytosolic fraction of homogenized brain tissue is used for screening compounds in a 96-well assay format. […]
The assay used to measure in vitro inhibition of human FTase is a modification of the method described by Amersham LifeScience for using their Farnesyl transferase (3H) Scintillation Proximity Assay (SPA) kit (TRKQ 7010). FTase enzyme activity is determined in a volume of 100 μl containing 50 mM N-(2-hydroxy ethyl) piperazine-N-(2-ethane sulfonic acid) (HEPES), pH 7.5, 30 mM MgCl2, 20 mM KCl, 25 mM Na2HPO4, 5 mM dithiothreitol (DTT), 0.01% Triton X-100, 5% dimethyl sulfoxide (DMSO), […] of crude FTase, […] [3H]-famesyl pyrophosphate ([3H]-FPP; 36000 dpm/pmole, Amersham LifeScience), and 0.2 μM of biotinylated Ras peptide KTKCVIS (Bt-KTKCVIS) that is N-terminally biotinylated at its alpha amino group and was synthesized and purified by HPLC in house. […] The amount of radioactivity bound to the SPA beads is determined using a MicroBeta 1450 plate counter. […]

A value given as a limit tells only on which side of the number the result lay.

For the compound `Cn1cncc1C(N)(c1ccc(Cl)nc1)c1ccc2c(c1)c(-c1cccc(Cl)c1)cc(=O)n2CC1CC1` (single isomer, unassigned; (+)) [Example 8, (+)-6-[Amino-(6-chloro-pyridin-3-yl)-(3-methyl-3H -imidazol-4-yl)-methyl]-4-(3-chloro-phenyl)-1-cyclopropylmethyl-1H-quinolin-2-one], where the note is “compared with the levorotatory isomer, figures not given”, the “activity in inhibiting the enzyme farnesyl protein transferase, relative to the levorotatory isomer” value is reported as “greater activity”. Further, under “crude FTase (cytosolic fraction of brain tissue), [3H]-FPP, Bt-KTKCVIS, 45 minute incubation at 37° C., read-out: IC50 value for inhibiting farnesylation of the biotinylated KTKCVIS-peptide”, the IC50 is less than 500 nM.
